Positions of bridges follow the written chain, without caps; N, C: chain ends. Non-standard residues stand in square brackets, D forms with d. Residues, ends and D or L forms follow the SMILES beside them. PEG5 = NCCOCCOCCOCCOCCOCCC(=O)O; PEG4 = NCCOCCOCCOCCOCCC(=O)O; PEG3 = NCCOCCOCCOCCC(=O)O
Target: T1, AM1R (Homo sapiens, UniProt O60895+Q16602)
T1 construct: EYFP; ECFP; expressed in transfected cells; host or cells: HEK-293 (transient co-transfection)
Test: Activity determination in vitro: cAMP/CRE-luciferase reporter assay in HEK293 cells transiently co-transfected with CLR and RAMP2
Assay type: cell-based
Settings: for Emax: HEK293, normalized to [G14]ADM(14-52); for EC50: HEK293 with CLR/RAMP2, CRE-luciferase, 3 h stimulation
Experimental: (1a) Activity Determination of Adrenomedullin Analogues in vitro
Cell Culture HEK-293 cells (human embryonic kidney cells) were cultured in Ham's F-12/DMEM (1/1; v/v) containing 15% FCS under humidified atmosphere at 37° C. and 5% CO2 in 75 cm^2 cell culture flasks.
Cells were cultured in 75 cm^2 flasks to 70-80% confluency. 45 μl Metafectene® Pro was diluted in 900 ρl Ham's F-12/DMEM (1/1; v/v) and incubated for 20 min at room temperature. 9 μg plasmid containing DNA of CLR fused to EYFP and 3 μg plasmid containing DNA of RAMP2 fused to ECFP were dissolved in 900 μl Ham's F-12/DMEM (1/1; v/v). The plasmid solution was mixed with the Metafectene® Pro solution and incubated for 25 min at room temperature. Medium was removed from the cells and replaced by 6 m1 Ham's F-12/DMEM (1/1; v/v) containing 15% FCS. After addition of transfection solution the cells were incubated for 3 h under humidified atmosphere at 37° C. and 5% CO2. For the second transfection 45 μl Metafectene® Pro was diluted in 900 μl Ham's F-12/DMEM (1/1; v/v) and incubated for 20 min at room temperature. 12 μg of pGL4.29[Luc2P/CRE/Hygro] plasmid containing DNA for the luciferase reporter gene luc2P (with CRE promotor region) were dissolved in 900 μl Ham's F-12/DMEM (1/1; v/v). The plasmid solution was mixed with the Metafectene® Pro solution and incubated for 25 min at room temperature. Medium was removed from the cells and replaced by 6 m1 Ham's F-12/DMEM (1/1; v/v) containing 15% FCS. After addition of transfection solution, the cells were incubated under humidified atmosphere at 37° C. and 5% CO2 over night.
For coating of 96-well-plates, 50 μl of a poly-D-lysine solution in DPBS (0.1 mg/ml) were pipetted in each well and incubated for 40 min. After removal of poly-D-lysine, each well was washed with 50 μl DPBS. Transiently transfected cells were detached from the cell culture flask by removal of the medium, 2-fold washing with 5 m1 DPBS and resuspending in 40 m1 Ham's F-12/DMEM (1/1; v/v) containing 15% FCS. 90,000 to 120,000 cells in 150 μl Ham's F-12/DMEM (1/1; v/v) containing 15% FCS were seeded per well and the plates were incubated under humidified atmosphere at 37° C. and 5% CO2 over night.
For each ligand, a serial dilution with eight different concentrations was prepared using Ham's F^12/DMEM (1/1; v/v). Before stimulation, the medium on the cells was replaced by 100 μl Ham's F^12/DMEM (1/1; v/v) and the plates were incubated for 1 h under humidified atmosphere at 37° C. and 5% CO2. For stimulation, the medium was removed and the cells were incubated for 3 h in 80 μl of ligand-solution under humidified atmosphere at 37° C. and 5% CO2. In addition 80 μl of a 5 μM forskolin solution in Ham's F-12/DMEM (1/1; v/v) was used as a positive control and 80 μl of Ham's F-12/DMEM (1/1; v/v) as a negative control. Each concentration and the controls were tested as triplicates.
After 3 h of stimulation, the solutions were removed and the cells were washed with 50 μl of Ham's F-12/DMEM (1/1; v/v) perwell. After 10 m incubation in 30 μl of Ham's F-12/DMEM (1/1; v/v) at room temperature, 30 μl of luciferase-solution (ONE-Glo™ Luciferase Assay System) was added and the luminescence was directly measured using an Infinite M200 (Tecan).
Data analysis of the luminescence measurement was carried out with GraphPad Prism 5. Therefore, the measured luminescence values of each plate were first corrected on the base of the respective average of forskolin stimulation. Afterwards they were normalized to [G14]ADM(14-52), which was used as standard peptide in every assay. After correction and normalization, data was analyzed using non-linear regression giving dose-response curves for each tested ligand.

T1 sequence (Q16602 23-461): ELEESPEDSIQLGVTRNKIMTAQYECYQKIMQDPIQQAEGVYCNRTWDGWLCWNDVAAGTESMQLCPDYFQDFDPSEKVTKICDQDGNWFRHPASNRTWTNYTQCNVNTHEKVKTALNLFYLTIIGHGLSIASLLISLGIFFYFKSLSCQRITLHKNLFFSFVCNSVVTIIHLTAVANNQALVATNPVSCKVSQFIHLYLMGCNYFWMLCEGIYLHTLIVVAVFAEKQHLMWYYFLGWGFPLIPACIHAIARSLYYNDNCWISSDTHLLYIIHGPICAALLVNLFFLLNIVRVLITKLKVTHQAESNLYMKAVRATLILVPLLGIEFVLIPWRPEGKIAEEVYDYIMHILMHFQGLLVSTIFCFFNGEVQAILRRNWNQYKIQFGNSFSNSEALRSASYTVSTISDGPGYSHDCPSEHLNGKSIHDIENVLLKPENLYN
T1 sequence (O60895 43-175): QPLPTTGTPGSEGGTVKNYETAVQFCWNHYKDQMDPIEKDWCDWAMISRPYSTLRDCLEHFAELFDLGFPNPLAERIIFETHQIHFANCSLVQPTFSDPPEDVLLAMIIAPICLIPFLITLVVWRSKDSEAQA

CC[C@H](C)[C@H](NC(=O)[C@H](CCC(N)=O)NC(=O)[C@H](Cc1c[nH]cn1)NC(=O)[C@H](C)NC(=O)[C@H](CC(C)C)NC(=O)[C@H](CCCCN)NC(=O)[C@H](CCC(N)=O)NC(=O)[C@@H](NC(=O)[C@@H](NC(=O)[C@@H]1CSSC[C@H](NC(=O)CNC(=O)CN)C(=O)N[C@@H](CCCNC(=N)N)C(=O)N[C@@H](Cc2ccccc2)C(=O)NCC(=O)N[C@@H]([C@@H](C)O)C(=O)N1)[C@@H](C)O)C(C)C)C(=O)N[C@@H](Cc1ccc(O)cc1)C(=O)N[C@@H](CCC(N)=O)C(=O)N[C@@H](Cc1ccccc1)C(=O)N[C@H](C(=O)NCCOCCOCCOCCOCCC(=O)N[C@@H](CC(N)=O)C(=O)N[C@H](C(=O)N[C@@H](C)C(=O)N1CCC[C@H]1C(=O)N[C@@H](CCCNC(=N)N)C(=O)N[C@@H](CO)C(=O)N[C@@H](CCCCN)C(=O)N[C@H](C(=O)N[C@@H](CO)C(=O)N1CCC[C@H]1C(=O)N[C@@H](CCC(N)=O)C(=O)NCC(=O)N[C@@H](Cc1ccc(O)cc1)C(N)=O)[C@@H](C)CC)C(C)C)[C@@H](C)O [Example 8, ((4R,7S,13S,16S,19R)-19-(2-(2-aminoacetamido)acetamido)-13-benzyl-16-(3-guanidinopropyl)-7-((R)-1-hydroxyethyl)-6,9,12,15,18-pentaoxo-1,2-dithia-5,8,11,14,17-pentaazacycloicosane-4-carbonyl)-L-threonyl-ADM(23-34)-(1-(λ^2-azaneyl)-3,6,9,12-tetraoxapentadecan-15-oyl)-L-asparagyl-ADM(41-52)] (H-GGCRFGTCTVQKLAHQIYQFT[PEG4]NVAPRSKISPQGY-NH2; disulfide 3-8)
Emax: 95 ± 3%
EC50: 0.016 µM

CC[C@H](C)[C@H](NC(=O)[C@H](CCC(N)=O)NC(=O)[C@H](Cc1c[nH]cn1)NC(=O)[C@H](C)NC(=O)[C@H](CC(C)C)NC(=O)[C@H](CCCCN)NC(=O)[C@H](CCC(N)=O)NC(=O)[C@@H](NC(=O)[C@@H](NC(=O)[C@@H]1CSSC[C@H](NC(=O)CNC(=O)CN)C(=O)N[C@@H](CCCNC(=N)N)C(=O)N[C@@H](Cc2ccccc2)C(=O)NCC(=O)N[C@@H]([C@@H](C)O)C(=O)N1)[C@@H](C)O)C(C)C)C(=O)N[C@@H](Cc1ccc(O)cc1)C(=O)N[C@@H](CCC(N)=O)C(=O)N[C@@H](Cc1ccccc1)C(=O)N[C@H](C(=O)N[C@@H](CC(=O)O)C(=O)NCCOCCOCCOCCC(=O)N[C@@H](CC(N)=O)C(=O)N[C@H](C(=O)N[C@@H](C)C(=O)N1CCC[C@H]1C(=O)N[C@@H](CCCNC(=N)N)C(=O)N[C@@H](CO)C(=O)N[C@@H](CCCCN)C(=O)N[C@H](C(=O)N[C@@H](CO)C(=O)N1CCC[C@H]1C(=O)N[C@@H](CCC(N)=O)C(=O)NCC(=O)N[C@@H](Cc1ccc(O)cc1)C(N)=O)[C@@H](C)CC)C(C)C)[C@@H](C)O [Example 9, ((4R,7S,13S,16S,19R)-19-(2-(2-aminoacetamido)acetamido)-13-benzyl-16-(3-guanidinopropyl)-7-((R)-1-hydroxyethyl)-6,9,12,15,18-pentaoxo-1,2-dithia-5,8,11,14,17-pentaazacycloicosane-4-carbonyl)-L-threonyl-ADM(23-35)-(3-(2-(2-(2-(λ^2-azaneyl)ethoxy)ethoxy)ethoxy)propanoyl)-L-asparagyl-ADM(41-52)] (H-GGCRFGTCTVQKLAHQIYQFTD[PEG3]NVAPRSKISPQGY-NH2; disulfide 3-8)
Emax: 87 ± 4%
EC50: 0.049 µM

CC[C@H](C)[C@H](NC(=O)[C@H](CCC(N)=O)NC(=O)[C@H](Cc1c[nH]cn1)NC(=O)[C@H](C)NC(=O)[C@H](CC(C)C)NC(=O)[C@H](CCCCN)NC(=O)[C@H](CCC(N)=O)NC(=O)[C@@H](NC(=O)[C@@H](NC(=O)[C@@H]1CSSC[C@H](NC(=O)CNC(=O)CN)C(=O)N[C@@H](CCCNC(=N)N)C(=O)N[C@@H](Cc2ccccc2)C(=O)NCC(=O)N[C@@H]([C@@H](C)O)C(=O)N1)[C@@H](C)O)C(C)C)C(=O)N[C@@H](Cc1ccc(O)cc1)C(=O)N[C@@H](CCC(N)=O)C(=O)N[C@@H](Cc1ccccc1)C(=O)N[C@H](C(=O)N[C@@H](CC(=O)O)C(=O)NCCOCCOCCOCCOCCC(=O)N[C@H](C(=O)N[C@@H](C)C(=O)N1CCC[C@H]1C(=O)N[C@@H](CCCNC(=N)N)C(=O)N[C@@H](CO)C(=O)N[C@@H](CCCCN)C(=O)N[C@H](C(=O)N[C@@H](CO)C(=O)N1CCC[C@H]1C(=O)N[C@@H](CCC(N)=O)C(=O)NCC(=O)N[C@@H](Cc1ccc(O)cc1)C(N)=O)[C@@H](C)CC)C(C)C)[C@@H](C)O [Example 10, ((4R,7S,13S,16S,19R)-19-(2-(2-aminoacetamido)acetamido)-13-benzyl-16-(3-guanidinopropyl)-7-((R)-1-hydroxyethyl)-6,9,12,15,18-pentaoxo-1,2-dithia-5,8,11,14,17-pentaazacycloicosane-4-carbonyl)-L-threonyl-ADM(23-35)-(1-(λ^2-azaneyl)-3,6,9,12-tetraoxapentadecan-15-oyl)-L-valyl-ADM(42-52)] (H-GGCRFGTCTVQKLAHQIYQFTD[PEG4]VAPRSKISPQGY-NH2; disulfide 3-8)
Emax: 77 ± 3%
EC50: 0.081 µM

CC[C@H](C)[C@H](NC(=O)[C@H](CCC(N)=O)NC(=O)[C@H](Cc1c[nH]cn1)NC(=O)[C@H](C)NC(=O)[C@H](CC(C)C)NC(=O)[C@H](CCCCN)NC(=O)[C@H](CCC(N)=O)NC(=O)[C@@H](NC(=O)[C@@H](NC(=O)[C@@H]1CSSC[C@H](NC(=O)CNC(=O)CN)C(=O)N[C@@H](CCCNC(=N)N)C(=O)N[C@@H](Cc2ccccc2)C(=O)NCC(=O)N[C@@H]([C@@H](C)O)C(=O)N1)[C@@H](C)O)C(C)C)C(=O)N[C@@H](Cc1ccc(O)cc1)C(=O)N[C@@H](CCC(N)=O)C(=O)N[C@@H](Cc1ccccc1)C(=O)N[C@H](C(=O)NCCOCCOCCOCCOCCOCCC(=O)N[C@H](C(=O)N[C@@H](C)C(=O)N1CCC[C@H]1C(=O)N[C@@H](CCCNC(=N)N)C(=O)N[C@@H](CO)C(=O)N[C@@H](CCCCN)C(=O)N[C@H](C(=O)N[C@@H](CO)C(=O)N1CCC[C@H]1C(=O)N[C@@H](CCC(N)=O)C(=O)NCC(=O)N[C@@H](Cc1ccc(O)cc1)C(N)=O)[C@@H](C)CC)C(C)C)[C@@H](C)O [Example 11, ((4R,7S,13S,16S,19R)-19-(2-(2-aminoacetamido)acetamido)-13-benzyl-16-(3-guanidinopropyl)-7-((R)-1-hydroxyethyl)-6,9,12,15,18-pentaoxo-1,2-dithia-5,8,11,14,17-pentaazacycloicosane-4-carbonyl)-L-threonyl-ADM(23-34)-(1-(λ^2-azaneyl)-3,6,9,12,15-pentaoxaoctadecan-18-oyl)-L-valyl-ADM(42-52)] (H-GGCRFGTCTVQKLAHQIYQFT[PEG5]VAPRSKISPQGY-NH2; disulfide 3-8)
Emax: 94 ± 2%
EC50: 0.039 µM

— patent US20220387608A1, “ADRENOMEDULLIN-ANALOGUES FOR LONG-TERM STABILIZATION AND THEIR USE” (Bayer Aktiengesellschaft, priority 2019, published 2022)
